Measured values taken from the NIST ThermoML archive (doi:10.1021/je700261b).
± gives the expanded uncertainty stated by the source.

Experiment: xn = mol fraction of the nth substance listed
Conditions: Liquid

CCCCO [butan-1-ol] + O=C=O
mass density (333.08 K, 16957 kPa, x2 = 0.1842): 803.2 ± 0.59 kg/m3 | mass density (333.08 K, 18103 kPa, x2 = 0.1842): 804.27 ± 0.6 kg/m3 | mass density (333.08 K, 19053 kPa, x2 = 0.1842): 805.14 ± 0.61 kg/m3 | mass density (333.08 K, 20044 kPa, x2 = 0.1842): 806.03 ± 0.62 kg/m3 | mass density (333.08 K, 21090 kPa, x2 = 0.1842): 807.01 ± 0.63 kg/m3 | mass density (333.08 K, 21974 kPa, x2 = 0.1842): 807.82 ± 0.64 kg/m3 | mass density (333.08 K, 22960 kPa, x2 = 0.1842): 808.7 ± 0.65 kg/m3 | mass density (333.08 K, 24014 kPa, x2 = 0.1842): 809.64 ± 0.66 kg/m3 | mass density (333.08 K, 25045 kPa, x2 = 0.1842): 810.58 ± 0.67 kg/m3 | mass density (342.85 K, 1014 kPa, x2 = 0.0251): 772.92 ± 0.47 kg/m3 | mass density (342.85 K, 2013 kPa, x2 = 0.0251): 773.93 ± 0.48 kg/m3 | mass density (342.85 K, 2982 kPa, x2 = 0.0251): 774.9 ± 0.48 kg/m3 | mass density (342.85 K, 4039 kPa, x2 = 0.0251): 775.94 ± 0.49 kg/m3 | mass density (342.85 K, 5057 kPa, x2 = 0.0251): 776.91 ± 0.5 kg/m3 | mass density (342.85 K, 5993 kPa, x2 = 0.0251): 777.79 ± 0.51 kg/m3 | mass density (342.85 K, 7067 kPa, x2 = 0.0251): 778.78 ± 0.52 kg/m3 | mass density (342.85 K, 8025 kPa, x2 = 0.0251): 779.69 ± 0.53 kg/m3 | mass density (342.85 K, 9013 kPa, x2 = 0.0251): 780.6 ± 0.54 kg/m3 | mass density (342.85 K, 10012 kPa, x2 = 0.0251): 781.51 ± 0.55 kg/m3 | mass density (342.85 K, 11010 kPa, x2 = 0.0251): 782.43 ± 0.56 kg/m3 | mass density (342.85 K, 11969 kPa, x2 = 0.0251): 783.27 ± 0.57 kg/m3 | mass density (342.85 K, 13080 kPa, x2 = 0.0251): 784.23 ± 0.58 kg/m3 | mass density (342.85 K, 13925 kPa, x2 = 0.0251): 784.95 ± 0.59 kg/m3 | mass density (342.85 K, 15055 kPa, x2 = 0.0251): 785.93 ± 0.6 kg/m3 | mass density (342.85 K, 16002 kPa, x2 = 0.0251): 786.72 ± 0.61 kg/m3 | mass density (342.85 K, 17016 kPa, x2 = 0.0251): 787.57 ± 0.62 kg/m3 | mass density (342.85 K, 18007 kPa, x2 = 0.0251): 788.39 ± 0.63 kg/m3 | mass density (342.85 K, 19019 kPa, x2 = 0.0251): 789.22 ± 0.64 kg/m3 | mass density (342.85 K, 20027 kPa, x2 = 0.0251): 790.06 ± 0.65 kg/m3 | mass density (342.85 K, 20996 kPa, x2 = 0.0251): 790.82 ± 0.66 kg/m3 | mass density (342.85 K, 22019 kPa, x2 = 0.0251): 791.65 ± 0.67 kg/m3 | mass density (342.85 K, 23034 kPa, x2 = 0.0251): 792.46 ± 0.68 kg/m3 | mass density (342.85 K, 24052 kPa, x2 = 0.0251): 793.28 ± 0.69 kg/m3 | mass density (342.85 K, 25090 kPa, x2 = 0.0251): 794.07 ± 0.7 kg/m3 | mass density (342.87 K, 15510 kPa, x2 = 0.9698): 598.32 ± 1.1 kg/m3 | mass density (342.87 K, 16022 kPa, x2 = 0.9698): 613.97 ± 1.1 kg/m3 | mass density (342.87 K, 17033 kPa, x2 = 0.9698): 640.58 ± 1 kg/m3 | mass density (342.87 K, 17988 kPa, x2 = 0.9698): 661.78 ± 0.98 kg/m3 | mass density (342.87 K, 19001 kPa, x2 = 0.9698): 681.25 ± 0.94 kg/m3 | mass density (342.87 K, 20036 kPa, x2 = 0.9698): 698.56 ± 0.91 kg/m3 | mass density (342.87 K, 21044 kPa, x2 = 0.9698): 713.53 ± 0.89 kg/m3 | mass density (342.87 K, 22014 kPa, x2 = 0.9698): 726.53 ± 0.87 kg/m3 | mass density (342.87 K, 23003 kPa, x2 = 0.9698): 738.6 ± 0.85 kg/m3 | mass density (342.87 K, 24019 kPa, x2 = 0.9698): 749.89 ± 0.84 kg/m3 | mass density (342.87 K, 24944 kPa, x2 = 0.9698): 759.52 ± 0.83 kg/m3 | mass density (342.88 K, 1975 kPa, x2 = 0.0857): 776.2 ± 0.48 kg/m3 | mass density (342.88 K, 2955 kPa, x2 = 0.0857): 777.28 ± 0.48 kg/m3 | mass density (342.88 K, 4033 kPa, x2 = 0.0857): 778.42 ± 0.49 kg/m3 | mass density (342.88 K, 5015 kPa, x2 = 0.0857): 779.45 ± 0.5 kg/m3 | mass density (342.88 K, 5957 kPa, x2 = 0.0857): 780.4 ± 0.51 kg/m3 | mass density (342.88 K, 7027 kPa, x2 = 0.0857): 781.49 ± 0.52 kg/m3 | mass density (342.88 K, 7999 kPa, x2 = 0.0857): 782.5 ± 0.53 kg/m3 | mass density (342.88 K, 9007 kPa, x2 = 0.0857): 783.51 ± 0.54 kg/m3 | mass density (342.88 K, 10003 kPa, x2 = 0.0857): 784.47 ± 0.54 kg/m3 | mass density (342.88 K, 11007 kPa, x2 = 0.0857): 785.43 ± 0.55 kg/m3 | mass density (342.88 K, 11951 kPa, x2 = 0.0857): 786.34 ± 0.56 kg/m3 | mass density (342.88 K, 13010 kPa, x2 = 0.0857): 787.34 ± 0.57 kg/m3 | mass density (342.88 K, 14012 kPa, x2 = 0.0857): 788.24 ± 0.58 kg/m3 | mass density (342.88 K, 15065 kPa, x2 = 0.0857): 789.2 ± 0.59 kg/m3 | mass density (342.88 K, 15994 kPa, x2 = 0.0857): 790.07 ± 0.6 kg/m3 | mass density (342.88 K, 17007 kPa, x2 = 0.0857): 790.98 ± 0.61 kg/m3 | mass density (342.88 K, 17999 kPa, x2 = 0.0857): 791.83 ± 0.62 kg/m3 | mass density (342.88 K, 18990 kPa, x2 = 0.0857): 792.72 ± 0.63 kg/m3 | mass density (342.88 K, 20029 kPa, x2 = 0.0857): 793.58 ± 0.64 kg/m3 | mass density (342.88 K, 20993 kPa, x2 = 0.0857): 794.43 ± 0.65 kg/m3 | mass density (342.88 K, 22004 kPa, x2 = 0.0857): 795.26 ± 0.66 kg/m3 | mass density (342.88 K, 23039 kPa, x2 = 0.0857): 796.17 ± 0.67 kg/m3 | mass density (342.88 K, 24019 kPa, x2 = 0.0857): 796.97 ± 0.68 kg/m3 | mass density (342.88 K, 25064 kPa, x2 = 0.0857): 797.88 ± 0.69 kg/m3 | mass density (342.92 K, 12062 kPa, x2 = 0.4972): 795.68 ± 0.56 kg/m3 | mass density (342.92 K, 13090 kPa, x2 = 0.4972): 797.59 ± 0.56 kg/m3 | mass density (342.92 K, 14017 kPa, x2 = 0.4972): 799.27 ± 0.57 kg/m3 | mass density (342.92 K, 15047 kPa, x2 = 0.4972): 801.1 ± 0.58 kg/m3 | mass density (342.92 K, 16026 kPa, x2 = 0.4972): 802.79 ± 0.59 kg/m3 | mass density (342.92 K, 17041 kPa, x2 = 0.4972): 804.51 ± 0.59 kg/m3 | mass density (342.92 K, 18053 kPa, x2 = 0.4972): 806.18 ± 0.6 kg/m3 | mass density (342.92 K, 19028 kPa, x2 = 0.4972): 807.77 ± 0.61 kg/m3 | mass density (342.92 K, 20046 kPa, x2 = 0.4972): 809.4 ± 0.62 kg/m3 | mass density (342.92 K, 21062 kPa, x2 = 0.4972): 810.98 ± 0.62 kg/m3 | mass density (342.92 K, 22043 kPa, x2 = 0.4972): 812.48 ± 0.63 kg/m3 | mass density (342.92 K, 22996 kPa, x2 = 0.4972): 813.92 ± 0.64 kg/m3 | mass density (342.92 K, 24003 kPa, x2 = 0.4972): 815.43 ± 0.65 kg/m3 | mass density (342.92 K, 25073 kPa, x2 = 0.4972): 816.99 ± 0.65 kg/m3
